Columns and labels:
[1] = test system: children with apraxia of speech; experiment: Speech and language assessment of children with apraxia of speech before and after a psychostimulant dose (case examples); assay type: in vivo, human
Text: Assessment of the verbal ability of a subject can include but is not limited to measures of all the domains described herein: nonspeech oral-motor, speech production, prosody, voice, speech perception, language, and, for older children, linguistic/literacy skills. Of these, (a) inconsistent errors on consonants and vowels in repeated productions of syllables or words, (b) lengthened and disrupted coarticulatory transitions between sounds and syllables, (c) inappropriate prosody, especially in the realization of lexical or phrasal stress; (d) the inability to see a new word and to have the ability to identify and sequence in time and space the sounds not only by themselves but in relationship to one another to be able to produce to transform from a symbol, orthographic to sound representation but to do it according to the rules of language knowing where to divide the written symbols into units; (e) the inability to not only transform into sounds, but sounds in relationship in terms of speed and volume to have that word in the context have that meaning that the author of the written word wanted to convey. The cultural and linguistic background of each subject may optionally be assessed.
When treating a child who is incapable of communication, the child is tested with respect to language skills as well as visual-spatial comprehension skills. For example, a child may be asked to pronounce a few single syllable words, such as “ma, ma” “ba, ba” or to described a picture or read a few words. At the same time, the child's body motions and emotional interactions with other people are observed.
For example, an improvement in a subject may include but is not limited to, an increase in the number of correct phonemes when speaking, a more normal time spent enunciating words, the number of times the last consonant of a word is used correctly, the proper sequencing of words and events, appropriate sound intensity.
Depending where the patient is on the apraxia pyramid, for example vocalization, words, prosody, the number of words in the sentence, the number or types of words in the sentence, the grammar syntax, prosody, measuring the child to his/her previous ability 20-30 minutes ago in addition to medication.

[2] = test system: children with good nonverbal development not functioning well with reading and language skills; experiment: Three minute reading test before and after administering the medicine (FIG. 2 and FIG. 3); assay type: in vivo, human; conditions: most of the nine children; 5 mg; pre- versus after administering
Experimental: FIG. 2 is a comparison of the reading abilities of a group of children with a various diagnosed symptoms between pre-treatment and after-treatment with one dosage of 5-7.5 mg of methylphenidate.
FIG. 3 is a comparison of the reading abilities of another group of children with a various diagnosed symptoms between pre-treatment and after-treatment with one dosage of 5-7.5 mg of methylphenidate.
Metrics for quantitative assessment of the language ability include words per minute, three minute reading test, sentence complexity such as length in words, complexity of construction, etc. The number of correctly read syllables minuses the number of mistakes divided by the months of reading training may be used to assess the language ability development.
In reference to FIG. 2 and FIG. 3. […] They were tested for three minute reading before and after administering the medicine. The mistakes in pronouncing syllables were counted. The correct pronunciation ratios (divided by the total number of syllables read) were compared between the pre-administering the drug and after administering the drug. […] Most of them had least 40% improvement.

Row | SMILES | speech and language (Example 9A, fifth visit) ([1]; Participant 9A, 10 mg/day after the methylphenidate regimen, about two weeks later) | speech and comprehension (Example 9B) ([1]; Participant 9B, same regimen as 9A (methylphenidate 5 then 10 mg/day, then Focalin 10 mg/day)) | speech ability after dose (Example 1) ([1]; 11 year autistic boy, 10 mg tablets, thirty minutes after dose) | speech improvement (Example 9A, third visit) ([1]; Participant 9A, 5 mg/day, after a month) | comprehension (Example 9A, fourth visit) ([1]; Participant 9A, 10 mg/day, about a month later) | reading ability after dose (Example 5) ([1]; child with dyslexia, 10 mg, half an hour later) | speech ability after dose (Example 7) ([1]; child, chromosome 15 duplication, 2.5 mg, thirty minutes later) | speech and motor ability after dose (Example 8) ([1]; child, 5 mg, after 30 minutes) | speech ability after dose (Example 2) ([1]; child, one dosage of 5 mg, half an hour later) | follow up on speech after repeated dosing (Example 7) ([1]; same child, 2.5 mg a day for two to three months) | improvement of correct pronunciation ratio, three minute reading [2]
1 | COC(=O)[C@H](c1ccccc1)[C@H]1CCCCN1 [Focalin®, dextro-threo-methylphenidate] | able to answer questions about their daily life in clear speech and language | an improvement in speech and comprehension |  |  |  |  |  |  |  |  | 
2 | COC(=O)C(c1ccccc1)C1CCCCN1 (centres unmarked) [methylphenidate] |  |  | able to imitate “ma ma ma” | no significant improvement in speech | able to understand the story line of a children's book | able to read a sentence with smooth pronunciations | able to make sounds of “ma mi”, mimic “bye”, “bye” and babble with sounds | able to repeat two syllable words | able to follow instructions to mimic the sounds “ma” “ma” “ga” “ga” | good progress in speaking sounds | ≥ 40%

Reference: patent US9375421B2, “Pharmaceutical intervention for treating an apraxia of speech in children” (Gilrose Pharmaceuticals, LLC, priority 2011, dated 2016)
